Results on eight compounds are retold here after ChEMBL document CHEMBL3763130, “Recent advances in the development of dual VEGFR and c-Met small molecule inhibitors as anticancer drugs” (Eur J Med Chem, 2016).

Molecules are shown by their SMILES. Bounds are passed on as bounds.

In data set [1] the test system is HUVEC. As to the kind of experiment: Antiangiogenic activity in HUVEC assessed as inhibition of VEGF induced cell proliferation after 3 days by WST-1 assay. Conditions: Homo sapiens, 72 h. The data set is classed as functional, cell-based. On the technique in general: Formazan colour is commonly taken as a measure of viable cells.
Data set [2] is described as follows: Cytotoxicity against human EBC1 cells assessed as inhibition of tumour growth after 3 days by WST-8 assay. The data set is classed as functional, cell-based. Conditions: EBC-1, 72 h.
Data set [3] in a line: Cytotoxicity against human Hs 746T cells assessed as inhibition of tumour growth after 3 days by WST-8 assay. Format: functional, cell-based. Conditions: Hs746T, 72 h.
Data set [4] relates to HUVEC. In words: Antiangiogenic activity in HUVEC assessed as inhibition of bFGF induced cell proliferation after 3 days by WST-1 assay. Format: functional, cell-based. The note with it: Homo sapiens, 72 h.
The subject of data set [5] is HUVEC. In words: Antiangiogenic activity in HUVEC assessed as inhibition of HGF induced cell proliferation after 3 days by WST-1 assay. The data set is classed as functional, cell-based. The note with it: Homo sapiens, 72 h.
Data set [6] can be described thus: Cytotoxicity against human SNU5 cells assessed as inhibition of tumour growth after 3 days by WST-8 assay. The data set is classed as functional, cell-based. Conditions: SNU-5, 72 h.
Data set [7] in a line: Cytotoxicity against human MKN45 cells assessed as inhibition of tumour growth after 3 days by WST-8 assay. Conditions: MKN-45, 72 h. Format: functional, cell-based.
Data set [8] concerns the target Vascular endothelial growth factor receptor 2 (Homo sapiens, UniProt P35968). As to the kind of experiment: Inhibition of VEGFR-2 autophosphorylation in HUVEC after 1 hr by Western blot analysis. Format: cell-based. A general note: Immunoblotting shows a protein as a band on a membrane.
The target of data set [9] is Hepatocyte growth factor receptor (Homo sapiens, UniProt P08581). In words: Inhibition of c-Met (unknown origin).
A short description of data set [10]: Cytotoxicity against HUVEC assessed as inhibition of VEGF-independent growth after 72 hrs by CellTiter-Glo method. Format: cell-based. Conditions: human, HUVEC cells.
Data set [11] concerns the target T1, Receptor-type tyrosine-protein kinase FLT3 (Homo sapiens, UniProt P36888).
T1 sequence (P36888 whole entry): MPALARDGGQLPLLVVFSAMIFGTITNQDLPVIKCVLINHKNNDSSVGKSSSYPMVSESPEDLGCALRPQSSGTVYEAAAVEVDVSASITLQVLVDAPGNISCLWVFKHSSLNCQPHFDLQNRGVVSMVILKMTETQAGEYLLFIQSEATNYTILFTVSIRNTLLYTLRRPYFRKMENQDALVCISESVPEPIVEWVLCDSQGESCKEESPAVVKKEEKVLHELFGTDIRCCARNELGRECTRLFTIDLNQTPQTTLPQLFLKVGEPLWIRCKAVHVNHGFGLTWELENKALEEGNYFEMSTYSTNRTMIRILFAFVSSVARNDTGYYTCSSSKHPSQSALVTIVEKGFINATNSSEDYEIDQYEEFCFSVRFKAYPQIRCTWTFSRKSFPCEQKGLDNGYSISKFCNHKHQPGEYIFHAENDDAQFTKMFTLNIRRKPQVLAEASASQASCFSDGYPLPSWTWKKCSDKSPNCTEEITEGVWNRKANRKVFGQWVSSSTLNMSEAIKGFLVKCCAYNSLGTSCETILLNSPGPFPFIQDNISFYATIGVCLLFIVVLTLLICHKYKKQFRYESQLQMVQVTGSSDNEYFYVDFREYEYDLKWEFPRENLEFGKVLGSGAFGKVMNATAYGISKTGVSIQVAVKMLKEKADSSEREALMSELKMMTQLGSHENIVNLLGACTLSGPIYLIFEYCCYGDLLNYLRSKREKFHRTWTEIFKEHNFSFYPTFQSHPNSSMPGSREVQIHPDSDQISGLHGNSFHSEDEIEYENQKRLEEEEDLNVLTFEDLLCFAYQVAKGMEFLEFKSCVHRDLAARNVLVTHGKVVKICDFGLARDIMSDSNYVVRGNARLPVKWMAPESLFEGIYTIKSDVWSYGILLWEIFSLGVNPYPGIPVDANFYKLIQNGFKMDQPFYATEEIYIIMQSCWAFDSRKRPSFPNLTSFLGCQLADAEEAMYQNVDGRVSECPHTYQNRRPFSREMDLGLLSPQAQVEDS
In words: Inhibition of Flt-3 (unknown origin).

Data set [12] has as its target T2, Tyrosine-protein kinase receptor UFO (Homo sapiens, UniProt P30530).
T2 sequence (P30530 whole entry): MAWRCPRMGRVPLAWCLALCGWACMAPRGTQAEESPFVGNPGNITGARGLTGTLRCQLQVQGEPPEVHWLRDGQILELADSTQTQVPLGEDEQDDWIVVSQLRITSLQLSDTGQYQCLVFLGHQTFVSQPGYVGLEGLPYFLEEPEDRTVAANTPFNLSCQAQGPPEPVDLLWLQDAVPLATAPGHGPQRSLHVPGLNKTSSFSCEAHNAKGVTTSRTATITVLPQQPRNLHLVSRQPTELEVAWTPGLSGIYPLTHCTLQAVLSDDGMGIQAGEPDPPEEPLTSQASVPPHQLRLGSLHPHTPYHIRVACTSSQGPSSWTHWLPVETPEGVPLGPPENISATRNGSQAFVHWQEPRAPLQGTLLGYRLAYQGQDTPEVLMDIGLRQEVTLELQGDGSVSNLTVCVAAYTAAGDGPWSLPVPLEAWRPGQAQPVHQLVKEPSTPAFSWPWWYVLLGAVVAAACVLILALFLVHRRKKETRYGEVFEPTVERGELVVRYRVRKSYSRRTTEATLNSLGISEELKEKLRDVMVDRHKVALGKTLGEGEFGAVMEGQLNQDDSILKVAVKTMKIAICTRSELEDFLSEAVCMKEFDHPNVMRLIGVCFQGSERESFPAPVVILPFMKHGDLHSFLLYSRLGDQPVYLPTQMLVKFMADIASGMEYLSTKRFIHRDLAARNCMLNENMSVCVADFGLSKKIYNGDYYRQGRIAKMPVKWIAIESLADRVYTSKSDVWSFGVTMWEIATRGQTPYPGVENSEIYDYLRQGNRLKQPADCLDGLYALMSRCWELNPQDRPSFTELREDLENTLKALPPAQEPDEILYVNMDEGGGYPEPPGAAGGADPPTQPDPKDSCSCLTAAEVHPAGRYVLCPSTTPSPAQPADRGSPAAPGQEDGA
In words: Inhibition of Axl (unknown origin).

Data set [13] concerns the target Macrophage-stimulating protein receptor (Homo sapiens, UniProt Q04912). As to the kind of experiment: Inhibition of Ron (unknown origin).
Data set [14] can be described thus: Antitumor activity against mouse B16F10 cells implanted in naive mouse assessed as reduction in metastatic tumor burden at 30 mg/kg, po qd by Zeiss stereoscopic analysis relative to control. Format: functional, B16-F10. Further details: scale not given: the % may be the effect or the level left.
The nature of data set [15]: Antitumor activity against mouse B16F10 cells implanted in naive mouse assessed as tumour growth inhibition at 100 mg/kg, po qd by Zeiss stereoscopic analysis relative to control. The note with it: B16-F10, po, read-out: TGI. Format: functional.
Data set [16] is described as follows: Antitumor activity against mouse B16F10 cells implanted in naive mouse assessed as tumour growth inhibition at 30 mg/kg, po qd by Zeiss stereoscopic analysis relative to control. Conditions: B16-F10, po, read-out: TGI. Format: functional.
Data set [17] can be described thus: Antitumor activity against mouse B16F10 cells implanted in naive mouse assessed as reduction in lung surface tumor burden at 100 mg/kg, po qd by Zeiss stereoscopic analysis relative to control. Format: functional, B16-F10. On the set-up: scale not given: the % may be the effect or the level left.
Data set [18] can be described thus: Antitumor activity against mouse B16F10 cells implanted in naive mouse assessed as reduction in lung surface tumor burden at 30 mg/kg, po qd by Zeiss stereoscopic analysis relative to control. The data set is classed as functional, B16-F10. On the set-up: scale not given: the % may be the effect or the level left.
Data set [19] is described as follows: Antitumor activity against mouse B16F10 cells implanted in naive mouse assessed as reduction in metastatic tumor burden at 100 mg/kg, po qd by Zeiss stereoscopic analysis relative to control. Further details: scale not given: the % may be the effect or the level left. The data set is classed as functional, B16-F10.
For data set [20], the target named is Vascular endothelial growth factor receptor 3 (Homo sapiens, UniProt P35916). In words: Inhibition of VEGFR-3 (unknown origin) by AlphaScreen assay. On the technique in general: Bead proximity is the source of the signal in Alpha formats.
For data set [21], the target named is Vascular endothelial growth factor receptor 1 (Homo sapiens, UniProt P17948). In words: Inhibition of VEGFR-1 (unknown origin) by AlphaScreen assay.

Sequence of Hepatocyte growth factor receptor (P08581 whole entry): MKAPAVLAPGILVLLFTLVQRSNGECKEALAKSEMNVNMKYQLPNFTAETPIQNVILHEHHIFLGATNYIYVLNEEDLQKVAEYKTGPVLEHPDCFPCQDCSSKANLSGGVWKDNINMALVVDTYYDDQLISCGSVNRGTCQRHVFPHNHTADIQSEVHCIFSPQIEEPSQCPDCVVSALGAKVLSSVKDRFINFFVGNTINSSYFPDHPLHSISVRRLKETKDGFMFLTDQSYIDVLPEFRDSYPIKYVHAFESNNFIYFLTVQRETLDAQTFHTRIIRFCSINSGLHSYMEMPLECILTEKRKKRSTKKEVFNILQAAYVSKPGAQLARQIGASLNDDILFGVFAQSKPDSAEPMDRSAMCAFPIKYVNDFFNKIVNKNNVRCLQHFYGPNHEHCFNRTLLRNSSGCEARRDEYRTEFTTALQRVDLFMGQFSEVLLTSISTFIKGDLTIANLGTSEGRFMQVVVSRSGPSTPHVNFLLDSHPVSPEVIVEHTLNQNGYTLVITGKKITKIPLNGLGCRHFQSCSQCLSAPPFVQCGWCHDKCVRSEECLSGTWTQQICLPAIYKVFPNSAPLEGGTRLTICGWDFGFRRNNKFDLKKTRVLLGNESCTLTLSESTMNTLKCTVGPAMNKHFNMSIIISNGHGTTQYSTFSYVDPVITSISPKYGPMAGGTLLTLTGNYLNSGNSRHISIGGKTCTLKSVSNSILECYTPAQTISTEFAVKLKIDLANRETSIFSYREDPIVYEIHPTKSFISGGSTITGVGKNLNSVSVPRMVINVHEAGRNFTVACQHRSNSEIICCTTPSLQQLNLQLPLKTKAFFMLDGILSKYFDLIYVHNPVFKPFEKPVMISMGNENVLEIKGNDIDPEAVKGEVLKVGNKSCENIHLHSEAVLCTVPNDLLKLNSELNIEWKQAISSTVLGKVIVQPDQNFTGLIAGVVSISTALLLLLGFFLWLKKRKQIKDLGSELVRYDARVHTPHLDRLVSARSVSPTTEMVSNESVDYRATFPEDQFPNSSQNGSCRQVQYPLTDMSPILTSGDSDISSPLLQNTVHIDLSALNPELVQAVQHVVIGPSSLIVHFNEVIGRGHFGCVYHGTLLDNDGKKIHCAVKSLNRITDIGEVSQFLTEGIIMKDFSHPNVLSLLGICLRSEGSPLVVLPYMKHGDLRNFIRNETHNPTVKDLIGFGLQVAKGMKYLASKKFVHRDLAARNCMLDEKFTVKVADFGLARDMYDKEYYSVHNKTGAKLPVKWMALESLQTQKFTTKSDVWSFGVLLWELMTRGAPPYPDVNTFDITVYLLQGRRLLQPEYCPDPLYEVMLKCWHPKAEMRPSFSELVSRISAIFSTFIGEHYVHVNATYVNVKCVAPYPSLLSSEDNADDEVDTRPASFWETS
Sequence of Macrophage-stimulating protein receptor (Q04912 25-304 limits assumed): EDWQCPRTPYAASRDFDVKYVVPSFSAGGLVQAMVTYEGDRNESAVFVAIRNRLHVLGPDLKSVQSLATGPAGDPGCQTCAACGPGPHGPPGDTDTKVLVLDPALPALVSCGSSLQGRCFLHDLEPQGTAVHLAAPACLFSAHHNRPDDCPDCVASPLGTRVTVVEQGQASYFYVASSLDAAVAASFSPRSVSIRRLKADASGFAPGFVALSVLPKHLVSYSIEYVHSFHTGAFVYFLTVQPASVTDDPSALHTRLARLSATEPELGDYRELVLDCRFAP
Sequence of Macrophage-stimulating protein receptor (Q04912 310-1400 limits assumed): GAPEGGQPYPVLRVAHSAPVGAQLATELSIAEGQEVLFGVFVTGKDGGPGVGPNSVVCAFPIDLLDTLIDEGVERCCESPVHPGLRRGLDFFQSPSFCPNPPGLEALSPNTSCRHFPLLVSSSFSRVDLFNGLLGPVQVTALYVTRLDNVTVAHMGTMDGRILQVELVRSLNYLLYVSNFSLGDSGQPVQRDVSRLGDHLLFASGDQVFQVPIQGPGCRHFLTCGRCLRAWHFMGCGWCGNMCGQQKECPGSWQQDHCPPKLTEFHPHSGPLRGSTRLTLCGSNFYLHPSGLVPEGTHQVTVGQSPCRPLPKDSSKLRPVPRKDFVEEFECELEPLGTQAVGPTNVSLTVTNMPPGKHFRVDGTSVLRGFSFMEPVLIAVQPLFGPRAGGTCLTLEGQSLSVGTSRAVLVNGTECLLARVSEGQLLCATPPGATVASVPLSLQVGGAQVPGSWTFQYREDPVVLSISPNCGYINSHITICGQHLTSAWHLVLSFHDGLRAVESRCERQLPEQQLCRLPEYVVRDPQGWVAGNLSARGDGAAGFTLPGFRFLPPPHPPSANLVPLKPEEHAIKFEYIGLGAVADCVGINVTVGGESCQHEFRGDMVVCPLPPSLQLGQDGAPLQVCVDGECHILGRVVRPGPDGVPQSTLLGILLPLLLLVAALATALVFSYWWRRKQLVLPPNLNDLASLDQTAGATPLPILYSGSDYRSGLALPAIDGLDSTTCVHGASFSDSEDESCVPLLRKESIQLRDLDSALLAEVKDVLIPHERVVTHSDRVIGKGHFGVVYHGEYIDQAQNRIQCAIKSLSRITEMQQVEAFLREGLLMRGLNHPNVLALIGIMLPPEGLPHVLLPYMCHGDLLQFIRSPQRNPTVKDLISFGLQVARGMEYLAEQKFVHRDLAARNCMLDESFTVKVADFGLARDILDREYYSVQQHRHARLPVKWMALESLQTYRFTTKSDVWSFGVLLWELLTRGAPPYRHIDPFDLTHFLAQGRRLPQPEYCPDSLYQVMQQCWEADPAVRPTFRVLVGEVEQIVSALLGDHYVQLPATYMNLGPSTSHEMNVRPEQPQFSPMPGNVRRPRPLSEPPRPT
Sequence of Vascular endothelial growth factor receptor 3 (P35916 whole entry): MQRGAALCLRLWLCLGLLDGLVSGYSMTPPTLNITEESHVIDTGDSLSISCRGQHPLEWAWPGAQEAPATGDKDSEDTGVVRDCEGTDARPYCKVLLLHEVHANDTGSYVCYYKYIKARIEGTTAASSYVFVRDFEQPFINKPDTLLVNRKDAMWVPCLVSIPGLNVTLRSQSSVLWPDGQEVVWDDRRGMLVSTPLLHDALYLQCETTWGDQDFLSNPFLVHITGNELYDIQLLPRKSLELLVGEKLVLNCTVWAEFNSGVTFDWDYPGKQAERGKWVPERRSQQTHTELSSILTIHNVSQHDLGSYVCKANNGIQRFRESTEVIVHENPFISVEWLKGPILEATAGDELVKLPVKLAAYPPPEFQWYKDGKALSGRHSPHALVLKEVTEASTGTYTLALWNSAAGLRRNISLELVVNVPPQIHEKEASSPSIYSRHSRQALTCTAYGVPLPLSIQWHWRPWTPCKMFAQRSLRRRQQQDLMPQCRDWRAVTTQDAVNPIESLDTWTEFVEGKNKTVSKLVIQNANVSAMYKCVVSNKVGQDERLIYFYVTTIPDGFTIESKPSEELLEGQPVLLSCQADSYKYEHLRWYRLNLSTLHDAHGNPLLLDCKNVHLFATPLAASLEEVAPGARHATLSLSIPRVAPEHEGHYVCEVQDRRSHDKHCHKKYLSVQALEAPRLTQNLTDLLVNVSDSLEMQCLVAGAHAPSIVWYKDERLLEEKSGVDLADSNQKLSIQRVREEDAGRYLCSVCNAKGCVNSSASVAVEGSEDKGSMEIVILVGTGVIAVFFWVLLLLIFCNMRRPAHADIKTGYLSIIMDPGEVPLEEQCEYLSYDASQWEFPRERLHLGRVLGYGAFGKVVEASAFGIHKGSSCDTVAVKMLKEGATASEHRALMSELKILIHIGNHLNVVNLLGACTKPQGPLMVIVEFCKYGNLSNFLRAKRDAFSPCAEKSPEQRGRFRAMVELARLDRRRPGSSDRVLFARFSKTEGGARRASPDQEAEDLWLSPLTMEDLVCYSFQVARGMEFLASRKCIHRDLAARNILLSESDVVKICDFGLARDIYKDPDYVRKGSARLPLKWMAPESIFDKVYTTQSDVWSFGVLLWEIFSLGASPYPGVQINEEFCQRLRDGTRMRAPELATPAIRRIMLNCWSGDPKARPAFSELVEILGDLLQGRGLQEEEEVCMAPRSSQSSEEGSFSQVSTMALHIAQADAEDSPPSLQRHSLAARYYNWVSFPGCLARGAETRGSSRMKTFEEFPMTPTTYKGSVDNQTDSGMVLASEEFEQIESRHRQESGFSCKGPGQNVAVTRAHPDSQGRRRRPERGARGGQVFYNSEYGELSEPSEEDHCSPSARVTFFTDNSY

For `CN1CCN(C2CCN(C(=O)Nc3cc(Oc4ccc(NC(=O)C5(C(=O)Nc6ccc(F)cc6)CC5)c(F)c4)ccn3)CC2)CC1` [GOLVATINIB], the IC50 was 0.084 µM in the data set with HUVEC [1]; 0.0062 µM in data set [2]; 0.023 µM in [3]; over 1 µM with HUVEC [4]; 0.017 µM in the data set on HUVEC [5]; 0.024 µM in [6]. Further, the concentration for half-maximal inhibition (IC50) in data set [7] worked out at 0.037 µM; in [8], 0.016 µM.

In [9], `O=C1NC(=O)[C@@H](c2cn3c4c(cccc24)CCC3)[C@@H]1c1c[nH]c2ccccc12` [TIVANTINIB] displayed a Ki of 0.355 µM.

On to `CNC(=O)c1cc2c(Oc3ccc(NC(=S)NC(=O)Cc4ccccc4)cc3F)ccnc2cc1OC` [TAS-115], for which the concentration for 50% growth inhibition (GI50) at 72 h in data set [10] was over 10 µM.

The compound `CN(C[C@@H]1COCCO1)S(=O)(=O)Nc1ccc2ccc3ncc(-c4cnn(C)c4)cc3c(=O)c2c1` [MK-2461] yielded an IC50 in data set [9] of 0.0004 µM.

Regarding `Nc1nccc(Oc2ccc(NC(=O)c3c[nH]cc(-c4ccc(F)cc4)c3=O)cc2F)c1Cl` [BMS-794833], the IC50 in data set [11], in data set [12] and in [13] was under 0.003 µM each time.

In data set [9], `Cn1cc(-c2ccc3nnc(C(F)(F)c4ccc5ncccc5c4)n3n2)cn1` [JNJ-38877605] had an IC50 of 0.004 µM.

As to `COc1cc2c(Oc3ccc(NC(=O)C4(C(=O)Nc5ccc(F)cc5)CC4)cc3F)ccnc2cc1OCCCN1CCOCC1` [FORETINIB], the Activity was 31% in [14], 58% in data set [17], 50% in [18] and 62% in data set [19]. For the same compound, the inhibition in vivo at 100 mg/kg in data set [15] amounted to 87%. Further, the inhibition in vivo at 30 mg/kg in data set [16] was 64%.

`CC1=[N+](c2ccccc2)C(=O)C(C(=O)Nc2ccc(Oc3ccc4nc(NC(=O)C5CC5)cn4c3)c(F)c2)C=C1` (stereo not drawn): the values for the IC50 in [20] and in data set [21] were 0.0055 µM and 0.0077 µM, respectively.

As usually defined, the IC50 is the concentration needed to halve the response being measured. As a reminder, the Ki is a dissociation constant, usually derived from enzyme kinetics or from competition with a known ligand. As usually defined, the GI50 is the concentration giving 50% growth inhibition.
